Among the data in US20230117470A1, “SUBSTITUTED PYRAZOLE COMPOUNDS AS TOLL RECEPTOR INHIBITORS” (BRISTOL-MYERS SQUIBB COMPANY, priority 2019, published 2023) are IC50 values, retold here.

What all share (assay type): cell-based
One test has as its target T1, human TLR9 (Homo sapiens, UniProt Q9NR96).
T1 construct: host or cells: HEK-Blue cells
T1 sequence (Q9NR96 26-1032): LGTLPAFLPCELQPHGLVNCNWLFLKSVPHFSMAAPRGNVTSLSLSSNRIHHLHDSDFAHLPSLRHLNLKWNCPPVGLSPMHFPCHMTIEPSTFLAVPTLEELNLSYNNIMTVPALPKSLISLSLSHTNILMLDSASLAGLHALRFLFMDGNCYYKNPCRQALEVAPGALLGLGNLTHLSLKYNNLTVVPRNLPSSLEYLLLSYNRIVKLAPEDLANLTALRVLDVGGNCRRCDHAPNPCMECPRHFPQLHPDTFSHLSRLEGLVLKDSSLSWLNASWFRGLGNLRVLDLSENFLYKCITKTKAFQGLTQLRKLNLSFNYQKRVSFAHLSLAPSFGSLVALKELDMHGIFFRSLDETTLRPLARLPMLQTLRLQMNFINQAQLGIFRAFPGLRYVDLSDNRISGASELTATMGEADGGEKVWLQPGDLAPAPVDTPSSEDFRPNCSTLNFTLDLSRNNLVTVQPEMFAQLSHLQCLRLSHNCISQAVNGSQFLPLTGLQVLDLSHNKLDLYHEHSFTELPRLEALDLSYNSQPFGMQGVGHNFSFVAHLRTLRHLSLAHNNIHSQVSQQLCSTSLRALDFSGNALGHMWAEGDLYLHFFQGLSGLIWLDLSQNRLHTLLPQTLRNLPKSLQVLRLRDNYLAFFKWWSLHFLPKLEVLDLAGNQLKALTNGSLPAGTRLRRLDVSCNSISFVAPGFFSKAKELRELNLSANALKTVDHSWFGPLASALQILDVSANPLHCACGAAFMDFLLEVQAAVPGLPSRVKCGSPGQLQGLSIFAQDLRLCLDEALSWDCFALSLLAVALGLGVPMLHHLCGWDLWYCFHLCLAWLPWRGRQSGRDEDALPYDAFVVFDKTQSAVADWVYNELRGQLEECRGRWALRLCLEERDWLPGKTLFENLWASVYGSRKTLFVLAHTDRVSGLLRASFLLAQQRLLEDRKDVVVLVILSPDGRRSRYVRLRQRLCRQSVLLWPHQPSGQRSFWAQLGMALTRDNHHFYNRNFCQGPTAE
In words: TLR9 inhibition reporter assay (HEK-Blue cells, SEAP reporter, ODN2006 stimulation). The conditions noted are these: HEK-Blue cells overexpressing human TLR9, SEAP reporter, ODN2006 5 nM. The method, boiled down: (§1)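 30 min RT cpd pre-incubation (0.05 nM–50 μM final dose response) → agonist: gardiquimod 7.5 μM / R848 15.9 μM / ODN2006 5 nM for TLR7/8/9 resp. → 22 h, 37° C → SEAP via detection medium. % inhibition vs agonist+DMSO and reference inhibitor controls.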
For orientation: A reporter such as luciferase makes a cellular process visible.

A further test has as its target T2, human TLR7 (Homo sapiens, UniProt Q9NYK1).
T2 construct: host or cells: HEK-Blue cells
T2 sequence (Q9NYK1 27-1049): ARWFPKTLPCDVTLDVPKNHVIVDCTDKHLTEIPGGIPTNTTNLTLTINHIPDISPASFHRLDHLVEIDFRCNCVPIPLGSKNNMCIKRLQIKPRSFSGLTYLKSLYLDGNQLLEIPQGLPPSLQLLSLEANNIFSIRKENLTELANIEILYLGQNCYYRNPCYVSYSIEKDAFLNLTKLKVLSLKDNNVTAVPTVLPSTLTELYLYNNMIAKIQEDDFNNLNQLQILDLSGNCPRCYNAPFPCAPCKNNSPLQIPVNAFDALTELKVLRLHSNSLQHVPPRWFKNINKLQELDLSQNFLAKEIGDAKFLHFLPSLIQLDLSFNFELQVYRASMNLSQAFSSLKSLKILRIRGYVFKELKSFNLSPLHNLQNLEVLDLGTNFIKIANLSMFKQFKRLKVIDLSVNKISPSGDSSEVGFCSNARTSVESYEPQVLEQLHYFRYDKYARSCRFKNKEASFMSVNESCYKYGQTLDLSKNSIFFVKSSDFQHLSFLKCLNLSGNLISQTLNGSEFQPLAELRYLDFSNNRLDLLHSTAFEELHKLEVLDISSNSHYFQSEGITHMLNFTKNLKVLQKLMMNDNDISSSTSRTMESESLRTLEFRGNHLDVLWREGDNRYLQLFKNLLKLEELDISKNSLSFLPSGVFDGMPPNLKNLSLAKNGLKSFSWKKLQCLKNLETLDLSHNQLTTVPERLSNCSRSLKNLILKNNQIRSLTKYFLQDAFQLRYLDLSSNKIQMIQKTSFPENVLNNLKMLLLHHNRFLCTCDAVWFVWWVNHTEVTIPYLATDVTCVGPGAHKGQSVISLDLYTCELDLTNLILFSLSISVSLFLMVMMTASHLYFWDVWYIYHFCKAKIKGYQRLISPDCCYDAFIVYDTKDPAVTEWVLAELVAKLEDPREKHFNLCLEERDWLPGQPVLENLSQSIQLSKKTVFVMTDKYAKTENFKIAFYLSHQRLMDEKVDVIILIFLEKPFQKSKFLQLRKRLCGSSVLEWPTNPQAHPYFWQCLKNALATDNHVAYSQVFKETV
In words: TLR7 inhibition reporter assay (HEK-Blue cells, SEAP reporter, gardiquimod stimulation). The following applies: HEK-Blue cells overexpressing human TLR7, SEAP reporter, gardiquimod 7.5 μM. Put shortly:
as §1

A further test addresses T3, human TLR8 (Homo sapiens, UniProt Q9NR97).
T3 construct: host or cells: HEK-Blue cells
T3 sequence (Q9NR97 27-1041): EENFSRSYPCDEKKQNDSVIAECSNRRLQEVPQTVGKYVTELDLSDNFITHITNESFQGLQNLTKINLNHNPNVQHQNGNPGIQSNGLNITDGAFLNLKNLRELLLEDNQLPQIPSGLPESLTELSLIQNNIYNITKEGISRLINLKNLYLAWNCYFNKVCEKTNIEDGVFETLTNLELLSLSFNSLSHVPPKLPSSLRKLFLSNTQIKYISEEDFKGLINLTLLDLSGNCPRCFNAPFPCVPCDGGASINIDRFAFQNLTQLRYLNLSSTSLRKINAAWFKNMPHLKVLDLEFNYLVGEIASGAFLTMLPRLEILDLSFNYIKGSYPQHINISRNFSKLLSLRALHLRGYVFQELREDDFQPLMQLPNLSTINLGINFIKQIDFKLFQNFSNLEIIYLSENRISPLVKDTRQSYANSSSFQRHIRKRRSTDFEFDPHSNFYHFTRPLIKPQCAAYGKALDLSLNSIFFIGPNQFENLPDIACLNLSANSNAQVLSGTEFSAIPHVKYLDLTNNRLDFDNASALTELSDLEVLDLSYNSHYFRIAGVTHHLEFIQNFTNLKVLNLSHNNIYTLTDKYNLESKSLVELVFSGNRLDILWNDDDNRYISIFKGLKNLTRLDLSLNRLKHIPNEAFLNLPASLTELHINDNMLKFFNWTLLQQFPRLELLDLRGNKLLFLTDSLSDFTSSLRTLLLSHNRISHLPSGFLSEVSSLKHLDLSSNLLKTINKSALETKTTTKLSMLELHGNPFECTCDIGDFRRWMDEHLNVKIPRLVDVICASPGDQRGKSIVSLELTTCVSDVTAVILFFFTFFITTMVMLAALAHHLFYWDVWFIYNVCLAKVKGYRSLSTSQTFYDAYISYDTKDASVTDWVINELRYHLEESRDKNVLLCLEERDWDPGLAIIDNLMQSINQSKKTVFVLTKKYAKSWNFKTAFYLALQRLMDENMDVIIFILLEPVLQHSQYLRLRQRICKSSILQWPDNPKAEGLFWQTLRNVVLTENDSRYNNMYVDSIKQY
In words: TLR8 inhibition reporter assay (HEK-Blue cells, SEAP reporter, R848 stimulation). The conditions noted are these: HEK-Blue cells overexpressing human TLR8, SEAP reporter, R848 15.9 μM. The method, boiled down:
as §1

`Cc1cc(-c2[nH]nc(C(=O)N[C@@H]3CCCN(C(C)C)C3)c2C(C)C)cn2ncnc12` [Example 161]: the IC50 (commonly the concentration at which inhibition is half-maximal) came out at 17000 nM against human TLR9, 18.1 nM on human TLR7 and 14.7 nM at human TLR8.
Turning to `Cc1cc(-c2[nH]nc(C(=O)N[C@H]3CC[C@H](NCc4cccnc4)CC3)c2C(C)C)cn2ncnc12` [Example 112], the IC50 was greater than 50000 nM at human TLR9, 11.4 nM against human TLR7 and 28.3 nM at human TLR8.
On to `CNC1CCC(c2n[nH]c(-c3cc(C)c4ncnn4c3)c2C(C)C)CC1` (single isomer, unassigned) [Example 294], for which the IC50 on human TLR9 is 8990 nM; at human TLR7, 7.97 nM; against human TLR8 it was 0.42 nM.
As for `Cc1cc(-c2[nH]nc(C3CCC(N(C)C(=O)CN(C)C)CC3)c2C(C)C)cn2ncnc12` (single isomer, unassigned) [compound 297], the IC50 at human TLR9 was 8910 nM; against human TLR7, 2.25 nM; at human TLR8 it was 0.27 nM.
As for `Cc1cc(-c2[nH]nc(C(=O)NCCc3ccccn3)c2C(C)C)cn2ncnc12` [Example 4], the results for the IC50 against human TLR9, on human TLR7 and against human TLR8 were 287 nM, 5.52 nM and 33.9 nM, respectively.
On to `CNC1CCC(c2n[nH]c(-c3cc(C)c4ncnn4c3)c2C(C)C)CC1` (single isomer, unassigned) [Example 295], for which the IC50 at human TLR9 worked out at 9710 nM; at human TLR7 it was 4.94 nM; against human TLR8, 0.28 nM.
For `COc1cc(-c2[nH]nc(-c3cnc(C4CCN(C(=O)CN(C)C)CC4)cn3)c2C(C)C)cn2ncnc12` [Example 403], the IC50 at human TLR9 was greater than 50000 nM; on human TLR7, 26.9 nM; against human TLR8, 156 nM.
Regarding `Cc1cc(-c2[nH]nc(C(=O)NC3CCN(CC4CCOCC4)CC3)c2CC(F)(F)F)cn2ncnc12` [Example 204], the IC50 against human TLR9 amounted to 17800 nM; against human TLR7, 1.5 nM; against human TLR8, 0.63 nM.
The corresponding values for `Cc1cc(-c2[nH]nc(C(=O)N[C@H]3CC[C@H](NCc4cncnc4)CC3)c2C(C)C)cn2ncnc12` [Example 113] are 7800 nM, 1.09 nM and 27.1 nM.
Turning to `Cc1cc(-c2[nH]nc(C(=O)NCC3CN(C4COC4)CCO3)c2C(C)C)cn2ncnc12` (stereo not drawn) [Example 142], the IC50 against human TLR9 worked out at 6970 nM; against human TLR7, 2.08 nM; at human TLR8, 2.7 nM.
Regarding `Cc1cc(-c2[nH]nc(-c3ncc4c(n3)CNC4)c2C(C)C)cn2ncnc12` [Example 216], the IC50 on human TLR9 is 6520 nM; at human TLR7, 0.72 nM; at human TLR8, 1.02 nM.
Take `CCN(C)C1CCC(c2n[nH]c(-c3cc(C)c4ncnn4c3)c2C(C)C)CC1` (single isomer, unassigned) [Example 282]: the IC50 was greater than 50000 nM against human TLR9, 29.8 nM against human TLR7 and 5.33 nM against human TLR8.
As to `CNCCN1CCC(NC(=O)c2n[nH]c(-c3cc(C)c4ncnn4c3)c2C(C)C)CC1` [Example 170], the IC50 stood at 1760 nM on human TLR9, 2.38 nM on human TLR7 and 4.65 nM on human TLR8.
Turning to `Cc1cc(-c2[nH]nc(C(=O)N[C@H]3CC[C@H](NCC4(C)COC4)CC3)c2C(C)C)cn2ncnc12` [Example 149], the concentration for half-maximal inhibition (IC50) against human TLR9 is greater than 50000 nM; against human TLR7, 108 nM; against human TLR8, 98.5 nM.
As for `Cc1cc(-c2[nH]nc(-c3nc4c(s3)CCNC4)c2C(C)C)cn2ncnc12` [Example 221], the IC50 is greater than 50000 nM at human TLR9, 3.08 nM at human TLR7 and 33.3 nM against human TLR8.
As for `Cc1cc(-c2[nH]nc(-c3ccc4cnccc4c3)c2C(C)C)cn2ncnc12` [Example 214], the IC50 against human TLR9 is 10300 nM; against human TLR7, 1.37 nM; against human TLR8 it was 0.39 nM.
On to `COc1cc(-c2[nH]nc(-c3cnc(C4CCN(C(C)C)CC4)cn3)c2C(C)C)cn2ncnc12` [Example 384], for which the IC50 is greater than 50000 nM on human TLR9, 39.5 nM against human TLR7 and 20.1 nM on human TLR8.
For the compound `Cc1cc(-c2[nH]nc(-c3ccc(N4CC(NC(C)C)C4)cc3)c2C(C)C)cn2ncnc12` [Example 409], the results for the IC50 at human TLR9, at human TLR7 and against human TLR8 were 9760 nM, 48.2 nM and 345 nM, respectively.
As to `Cc1cc(-c2[nH]nc(C(=O)NC3CCN(C(C)C)CC3)c2C(C)C)cn(C)c1=O` [Example 39], the IC50 on human TLR9 is 3560 nM; against human TLR7 it was 8.31 nM; on human TLR8 it was 25.5 nM.
For the compound `Cc1cc(-c2[nH]nc(C(=O)NC3CCN(C(C)C)CC3)c2CC(F)(F)F)cn2ncnc12` [Example 193], the IC50 against human TLR9 is 7630 nM; against human TLR7, 1.97 nM; on human TLR8, 4.45 nM.
As to `COc1cc(-c2[nH]nc(C(=O)NC3CCN(CC4CCOCC4)CC3)c2CC(F)(F)F)cn2ncnc12` [Example 197], the IC50 turned out to be 13100 nM on human TLR9, 5.35 nM against human TLR7 and 2.08 nM against human TLR8.
The like results for `Cc1cc(-c2[nH]nc(C(=O)N[C@H]3CCCNC3)c2C(C)C)cn2ncnc12` [Example 54] were, in that order, 6670 nM, 1.1 nM and 3.74 nM.
